This data set is described as follows: Relative bioavailability in fasted male Sprague Dawley rats, oral solid dose 100 mg/kg (Example 2). The data set is classed as in vivo. As to conditions: male Sprague Dawley rat, oral solid dose 100 mg/kg.

Experimental: The relative bioavailability of the PVP based composition of Example 1 was compared to the crystalline form in male Sprague Dawley rat in a parallel study design. An oral, solid dose of 100 mg/kg was administered to the rats in the fasted state.

Turning to `CCCCC(=O)N(Cc1ccc(-c2ccccc2-c2nnn[nH]2)cc1)[C@H](C(=O)O)C(C)C` [Valsartan, N-(1-oxopentyl)-N-[[2′-(1H-tetrazol-5-yl) [biphenyl]-4-yl]methyl]-L-valine], the “AUC0-24h (area under the drug plasma concentration vs. time profile)” value amounted to 40 µg·h/mL.

Source of the values: patent publication US20080152717A1 (ISP INVESTMENTS, INC., priority 2006, published 2008).
